Data as given in US8137907B2, “Orthotopic and genetically tractable non-human animal model for liver cancer and the uses thereof” (Cold Spring Harbor Laboratory, priority 2005, dated 2012).

System: subcutaneous liver tumor of genetic constellation p53−/−+Akt-over expression
Assay: Subcutaneous liver cancer model, evaluation of tumor therapy (FIG. 7)
Format: in vivo, mouse
Source text: FIG. 7: An example of subcutaneous liver cancer model of this invention on the genetic constellation p53−/−+Akt-over expression and its uses in evaluating tumor therapy. Akt is an […] that is activated in many cancers and may promote drug resistance in vitro (Mayo et al., “PTEN protects p53 from Mdm2 and sensitizes cancer cells to chemotherapy,” J. Biol. Chem. 277: 5484-5489 (2002)).
Most preferably, the therapies are used and evaluated in combination. […] The tumor embodied in FIG. 2 can also be treated with Rapamycin, a targeted therapy that inhibits the mammalian target of rapamycin (mTOR). […] In combination, however, as depicted in FIG. 7, the two therapies control tumor growth.

Q: How did the tumor growth turn out when `Nc1ccn([C@@H]2O[C@H](CO)[C@@H](O)C2(F)F)c(=O)n1` [Gemcitabine] was run?
A: virtually no effect on tumor growth
